From ChEMBL document CHEMBL4431297 (Medchemcomm, 2016)
Values belong to the molecule of their own block, whether it stands above or below them. The source made the active and inactive calls. The rule behind the calls is not given here.

Experiments:
Type in all cases: protein-complex assay
[1] = tested on: DNA gyrase (Escherichia coli), P0AES6+P0AES4 [UNDEFINED MUTATION]; experiment: (§1) Inhibition of Escherichia coli JMtacA/JMtacB DNA gyrase subunit A2B2 S83W mutant using relaxed pBR322 DNA as substrate incubated for 30 mins in presence of ATP by ethidium bromide staining based agarose gel electrophoresis
[2] = biological target: DNA gyrase (Escherichia coli, UniProt P0AES4+P0AES6); experiment: Inhibition of wild type Escherichia coli DNA gyrase subunit A2B2 using relaxed pBR322 DNA as substrate incubated for 30 mins in presence of ATP by ethidium bromide staining based agarose gel electrophoresis
[3] = biological target: DNA gyrase (Escherichia coli, UniProt P0AES4+P0AES6, S83W); experiment: as §1
[4] = tested on: DNA gyrase (Escherichia coli), P0AES6+P0AES4 [UNDEFINED MUTATION]; experiment: Inhibition of Escherichia coli JMtacA/JMtacB DNA gyrase subunit A2B2 S83W mutant at 100 uM using relaxed pBR322 DNA as substrate incubated for 30 mins in presence of ATP by ethidium bromide staining based agarose gel electrophoresis
[5] = biological target: T1, DNA gyrase (Escherichia coli) (UniProt P0AES6+P0AES4); experiment: (§2) Inhibition of wild type Escherichia coli DNA gyrase subunit A2B2 using supercoiled pBR322 DNA as substrate assessed as stabilization of enzyme-DNA cleavage complex by measuring linear DNA bands at 100 uM incubated for 30 mins in presence of proteinase K/SDS and in absence of ATP by ethidium bromide staining based agarose gel electrophoresis
[6] = biological target: T1, DNA gyrase (Escherichia coli); experiment: Inhibition of wild type Escherichia coli DNA gyrase subunit A2B2 at 100 uM using relaxed pBR322 DNA as substrate incubated for 30 mins in presence of ATP by ethidium bromide staining based agarose gel electrophoresis
[7] = tested on: DNA gyrase (Escherichia coli), P0AES6+P0AES4 [UNDEFINED MUTATION]; experiment: Inhibition of Escherichia coli JMtacA/JMtacB DNA gyrase subunit A2B2 S83W mutant at 50 uM using relaxed pBR322 DNA as substrate incubated for 30 mins in presence of ATP by ethidium bromide staining based agarose gel electrophoresis
[8] = tested on: DNA gyrase (Escherichia coli), P0AES6+P0AES4 [UNDEFINED MUTATION]; experiment: Inhibition of Escherichia coli JMtacA/JMtacB DNA gyrase subunit A2B2 S83W mutant at 25 uM using relaxed pBR322 DNA as substrate incubated for 30 mins in presence of ATP by ethidium bromide staining based agarose gel electrophoresis
[9] = biological target: T1, DNA gyrase (Escherichia coli); experiment: as §2, with “bands at 50 to 100 uM” for “bands at 100 uM”
[10] = biological target: T1, DNA gyrase (Escherichia coli); experiment: as §2, with “1” for “100”
[11] = biological target: T1, DNA gyrase (Escherichia coli); experiment: as §2, with “bands at 10 to 100 uM” for “bands at 100 uM”
[12] = tested on: DNA gyrase (Escherichia coli), P0AES6+P0AES4 [UNDEFINED MUTATION]; experiment: Inhibition of Escherichia coli JMtacA/JMtacB DNA gyrase subunit A2B2 S83W mutant at 50 to 300 uM using relaxed pBR322 DNA as substrate incubated for 30 mins in presence of ATP by ethidium bromide staining based agarose gel electrophoresis

Compound: CCOC(=O)c1cn(C2CC2)c2cc(N3CCNCC3)c(F)cc2c1=O [CIPROFLOXACIN ETHYL ESTER]
- inhibition [1]: Active
- IC50 [2]: 10 µM

Compound: CC(=O)O[C@@H]1[C@@H](C)O[C@@H](c2ccc3c(c2O)[C@@H](O)[C@]24O[C@@]2(C3=O)[C@@]2(O)C(=O)C=C(C)C[C@@]2(O)C[C@@H]4O)C[C@H]1OC(=O)/C=C/C=C/C=C/C=C/C(=O)O
- IC50 [3]: 50 µM

Compound: COC(=O)/C=C/C=C/C=C/C=C/C(=O)Nc1c(O)c2ccc(O)c(Cl)c2oc1=O
- IC50 [3]: 70 µM

- inhibition [4]: inactive
- inhibition [5]: Active
Compound: O=C(CCCCCCCCC(=O)N1CCN(c2cc3c(cc2F)c(=O)c(C(=O)O)cn3C2CC2)CC1)Nc1ccccc1

Compound: CCOC(=O)c1cn(C2CC2)c2cc(N3CCN(C(=O)CCCCCCCCC(=O)Nc4ccccc4)CC3)c(F)cc2c1=O
- inhibition [6]: inactive
- inhibition [1]: inactive

- inhibition [7]: inactive
Compound: CC(=O)Nc1cc2ccccc2oc1=O

- inhibition [8]: inactive
- inhibition [9]: Active
Compound: O=C(O)CCCCCCCCC(=O)N1CCN(c2cc3c(cc2F)c(=O)c(C(=O)O)cn3C2CC2)CC1

Compound: CCOC(=O)c1cn(C2CC2)c2cc(N3CCN(C(=O)CCCCCCCCC(=O)Nc4cc5ccccc5oc4=O)CC3)c(F)cc2c1=O
- inhibition [6]: inactive
- inhibition [1]: inactive

- inhibition [10]: inactive
Compound: CC(=O)O[C@@H]1[C@@H](C)O[C@@H](c2ccc3c(c2O)[C@@H](O)[C@]24O[C@@]2(C3=O)[C@@]2(O)C(=O)C=C(C)C[C@@]2(O)C[C@@H]4O)C[C@H]1OC(=O)/C=C/C=C/C=C/C=C/C(=O)Nc1c(O)c2ccc(O)c(Cl)c2oc1=O

Compound: O=C(CCCCCCCCC(=O)N1CCN(c2cc3c(cc2F)c(=O)c(C(=O)O)cn3C2CC2)CC1)Nc1cc2ccccc2oc1=O
- inhibition [11]: Active
- IC50 [3]: 3 µM

Compound: CCOC(=O)c1cn(C2CC2)c2cc(N3CCN(C(=O)CCCCCCCCC(=O)OC)CC3)c(F)cc2c1=O
- inhibition [6]: inactive
- inhibition [1]: inactive

- inhibition [12]: inactive
Compound: Nc1cc2ccccc2oc1=O
